# Test results taken from patent publication US20240344128A1, “IDENTIFICATION AND ELIMINATION OF DAMAGED AND/OR SENESCENT CELLS” (FUNDACIÓN DEL SECTOR PÜBLICO ESTATAL CENTRO NACIONAL DE …, priority 2017, published 2024).
# Experiments:
# [1] = test system: SK-Mel-103, UT-SCC-38 and UT-SCC-42B cells; experiment: SA-β gal / senescent response in human tumor cell lines; format: cell-based; conditions: SK-Mel-103 cells, 7 days
# Procedure: SK-Mel-103, UT-SCC-38 and UT-SCC-42B the cell lines were maintained in DMEM (Gibco) supplemented with 10% fetal bovine serum (Gibco) with antimycotic-antibiotic (Gibco), and incubated in 20% O2 sand 5% CO2 at 37° C. SK-Mel-103 and UT-SCC-42B cells were split 1:10 every 3-4 days. UT-SCC-38 were split 1:3 every 3-4 days.
# Eight days before the assay 20.000 SK-Mel-103 cells and 40.000 UT-SCC-38 and UT-SCC-42B cells were seeded into 6 well tissue culture plates (Falcon). The next day cells were treated with 2 μM Palbociclib. SK-Mel-103 cells were also treated with 10 nM Doxorubicin, 1 μM Nutlin or 6×10^−3 units/ml Bleomycin. All the cells were incubated in the presence of the senescence-inducing agents for at least 7 days without changing the media. Control cells were seeded in 6 well plates 24-48 hours prior the SA-β gal assay.
# SA-β galactosidase activity was assessed with the β-Galactosidase Staining Kit from Cell Signaling (#9860) following the manufactured instructions with one single variation: the pH of the “Staining Solution” (supplemented with buffers A and B and X-gal) was carefully adjusted to 6.
# [2] = test system: PD-L2 mRNA; experiment: PD-L1 and PD-L2 mRNA by quantitative RT-PCR in human tumor cell lines; format: cell-based; conditions: SK-Mel-103 cells, 7 days
# Procedure: Treated cells were not further split and their media was not changed for the duration of the treatment. Control cells were split every 3-4 days as previously described. One week after the start of the treatment, total RNA was isolated from control and treated cells with TRI Reagent (Sigma-Aldrich #T9424) following the manufacturer instructions. The isolated RNA was quantified using a nanodrop machine NanoVue (GE Healthcare). cDNA synthesis was performed with 2-7 μg of total RNA using the “iScript Advanced cDNA Synthesis kit” from BIO-RAD (#1725037). Quantitative real-time PCR was carried out with diluted cDNA (1:10) and “GoTaq qPCR Master Mix” (Promega A6002). Reactions were performed in triplicate in a 15 μl volume reaction mix prepared as follow: 7.5 μl 2X GoTaq qPCR Master Mix; 0.6 μl of pre-mixed primers (10 μM forward primer and 10 μM reverse primer); 1.9 μl nuclease-free water and 5 μl template cDNA (previously diluted 1:10). The qRT-PCR reaction was performed on a 7500 Fast Real-Time PCR System (Applied Biosystems) using “MicroAmp Fast Optical 96-well reaction plate with barcode” (Thermo Fisher #4346906) and “MicroAmp Optical adhesive film” (Thermo Fisher #4311971). […]
# [3] = test system: SK-Mel-103 cells; experiment: 53BP1 immunofluorescence (DNA double-strand breaks); format: cell-based, human; conditions: 7 days
# Procedure: SK-Mel-103 cells were seeded at 50% confluency on round 12 mm diameter coverslips (Marienfeld #0111520) previously placed inside 24 well plates. The following day, cells were treated with the senescence-inducing agents: 2 μM Palbociclib, […], 1 μM Nutlin and 6×10^−3 units/ml Bleomycin. Treated cells were not further split and their media was not changed for the duration of the treatment (7 days). Control cells were seeded similarly to treated, cells 24-48 hours prior the beginning of the procedure. Seven days after addition of the senescence-inducing agents, control and treated cells were washed with 1×PBS and Fixed on 2% paraformaldehyde-PBS for 10 minutes. The cells were then permeabilized with 0.25% Triton-PBS for 5 minutes, washed twice with 1×PBS and blocked with 5% BSA-PBS for 30 minutes. Next, the cells were incubated for 30 minutes with anti-53BP1 antibody (Abcam #ab172580) previously diluted 1:100 in blocking buffer (5% BSA-PBS), washed 3 times for 10 minutes with 1X PBS and incubated in the dark for 30 additional minutes with the secondary antibody: goat anti-rabbit Alexa Fluor 546 (ThermoFisher #A-11010) diluted 1:400 in blocking buffer. Finally, the cells were washed again 3 times for 10 minutes with 1×PBS and incubated with DAPI (Sigma #D9542) 300 nM in 1×PBS for 10 minutes. All the incubations and washed were performed at room temperature in 24 well plates. […]
# [4] = test system: senescent cells; conditions: cited from earlier work; for elimination of senescent cells: literature reports
# [5] = test system: PD-L2 mRNA; experiment: Doxorubicin-induced PD-L2 mRNA in C2C12 cells with enzymatic inhibitors; format: cell-based, mouse; conditions: 500 nM doxorubicin, 48 hours
# Procedure: C2C12 cells (FIG. 9) were treated with 500 nM doxorubicin for 48 hours in the presence or absence of the following inhibitors at the indicated concentrations: IKKi (50 μM), PIMi (1 μM), rotenone (1 μM), JAKi (3 μM), rapamycin (50 nM) and metformin (5 mM) or cultured in pyruvate-depleted media (FIG. 9A). In addition, C2C12 cells were incubated for 6 hours in the presence or absence of TLRs agonists (Mouse TLR1-9 Agonist kit. Invivogen): TLR1/2 agonist (Pam3CSK4, 300 ng/ml), TLR2 agonist (HKLM, 10^8 cells/ml), TLR3 agonist (Poly (I:C) HMW and Poly (I:C) LMW, 10 μg/ml), TLR4 agonist (LPS-EK, 10 μg/ml), TRL5 agonist (FLA-ST, 1 μg/ml), TRL6/2 agonist (FSL-1, 100 ng/ml), TRL7 agonist (ssRNA40, 5 μg/ml) and TLR9 agonist (ODN1826, 5 μM). Total RNA was isolated using TRI Reagent (Sigma-Aldrich #T9424) according to the manufacturer's instructions.
# (§1) The isolated RNA was quantified using a nanodrop machine NanoVue (GE Healthcare). cDNA synthesis was performed with 2-7 μg of total RNA using the “iScript Advanced cDNA Synthesis kit” from BIO-RAD (#1725037). Quantitative real-time PCR was carried out with diluted cDNA (1:10) and “GoTaq qPCR Master Mix” (Promega A6002). Reactions were performed in triplicate in a 15 μl volume reaction mix prepared as follow: 7.5 μl 2X GoTaq qPCR Master Mix; 0.6 μl of pre-mixed primers (10 μM forward primer and 10 μM reverse primer); 1.9 μl nuclease-free water and 5 μl template cDNA (previously diluted 1:10).
# The qRT-PCR reaction was performed on a 7500 Fast Real-Time PCR System (Applied Biosystems) using “MicroAmp Fast Optical 96-well reaction plate with barcode” (Thermo Fisher #4346906) and “MicroAmp Optical adhesive film” (Thermo Fisher #4311971). The reaction consisted in two holding stages (50° C. for 2:00 min and 95° C. for 10:00 min) and 40 amplification reactions (95° C. for 00:15 min/60° C. for 01:00 min/72° C. for 00:30 min) followed by a Melt Curve Stage.
# The Ct values of the genes of interest were averaged and normalized to the housekeeping gene β-actin. For each cell line and condition at least two independent experiments were performed.
# [6] = test system: PD-L2 mRNA; experiment: PD-L1 and PD-L2 mRNA by quantitative RT-PCR in mouse cell lines after 48 hours of genotoxic drugs; format: cell-based; conditions: C2C12, HcMel3 and HcMel13 cells
# Procedure: C2C12, HcMel3 and HcMel12 (FIG. 3) were treated with 12×10^−3 units/ml bleomycin or doxorubicin 500 nM (C2C12) or 167 nM (HcMel3 and HcMel12) for 48 hours. Total RNA was isolated using TRI Reagent (Sigma-Aldrich #T9424) according to the manufacturer's instructions.
# as §1
# The qRT-PCR reaction was performed on a 7500 Fast Real-Time PCR System (Applied Biosystems) using “MicroAmp Fast Optical 96-well reaction plate with barcode” (Thermo Fisher #4346906) and “MicroAmp Optical adhesive film” (Thermo Fisher #4311971). The reaction consisted in two holding stages (50° C. for 2:00 min and 95° C. for 10:00 min) and 40 amplification reactions (95° C. for 00:15 min/60° C. for 01:00 min/72° C. for 00:30 min) followed by a Melt Curve Stage. […]
# [7] = test system: lungs; experiment: Bleomycin-induced lung fibrosis in C57BL6 mice; format: in vivo, mouse; conditions: single intratracheal dose, 14 days
# Procedure: SA-β galactosidase activity was assessed in whole mount lungs (FIG. 5A) and xenografts (FIG. 6B) using the Senescence β-Galactosidase Staining Kit (Cell Signaling #9860). Lungs were fixed for 45 minutes with a solution containing 2% formaldehyde and 0.2% glutaraldehyde in PBS for 45 minutes and washed three times with PBS. Fixed tissues were subsequently stained overnight (16 hours) with X-gal staining solution (adjusted to pH 6.0).
# For gene expression analysis lungs were isolated and embedded in optimal cutting temperature (OCT) compound (Leica Biosystems). To obtain total RNA of OCT embedded tissue samples, 10 cryostat sections of 10 μm thickness were cut and excess OCT were removed. Cryosections were lysed in TRI Reagent (Sigma-Aldrich #T9424), pooled and processed according to manufacturer's instructions. cDNA was synthesized using 2 μg of total RNA. cDNA synthesis and RT-qPCR were performed as previously described. The Ct values of the genes of interest were averaged and normalized to the housekeeping gene Gapdh.
# Lung fibrosis was induced in C57BL6 mice (ENVIGO) by intratracheal delivery of a single dose of bleomycin (1.5 U/kg) or vehicle (PBS). 14 days after intratracheal injection, lung samples of vehicle (control) or bleomycin (fibrotic)-treated mice were collected for the analysis of SA-β gal activity and gene expression.
# [8] = test system: PD-L2 mRNA; experiment: PD-L2 mRNA in mouse melanoma cell lines B16F1 and B16F10; format: cell-based; conditions: B16F1 and B16F10 cells; data not shown
compound,measurement,setting,value
Nutlin,induction of senescence,[1],induce senescence in the SK-Mel-103 cells
same,PD-L2 mRNA levels,[2],had a similar effect on PD-L2 mRNA levels
same,DNA damage (53BP1 foci),[3],absence of 53BP1 foci in the chromatin
CC1(C)CCC(c2ccc(Cl)cc2)=C(CN2CCN(c3ccc(C(=O)NS(=O)(=O)c4ccc(N[C@H](CCN5CCOCC5)CSc5ccccc5)c(S(=O)(=O)C(F)(F)F)c4)cc3)CC2)C1 [Navitoclax],elimination of senescent cells,[4],efficiently eliminate senescent cells in vitro and in vivo
"Cc1ccc(S(=O)(=O)/C=C/C#N)cc1 [NFkB inhibitor, BAY 11-7082]",PD-L2 induction,[5],prevented PD-L2 induction
Bleomycin,induction of senescence,[1],induce senescence in the SK-Mel-103 cells
same,PD-L2 mRNA,[6],dramatic increase in PD-L2 mRNA
same,senescent cells (SA-β galactosidase positive staining) in whole fibrotic lungs,[7],accumulation of senescent cells
same,PD-L2 and PD-L1 mRNA in fibrotic organs,[7]; lung,"significant and specific up-regulation of PD-L2 mRNA, but not of PD-L1 mRNA"
same,PD-L2 mRNA,[8],PD-L2 mRNA up-regulation
same,PD-L2 mRNA levels,[2],had a similar effect on PD-L2 mRNA levels
same,DNA damage (53BP1 foci),[3],exhibited nuclear 53-BP1 foci
O=c1c(O)c(-c2ccc(O)c(O)c2)oc2cc(O)cc(O)c12 [Quercetin],number of damaged and/or senescent cells,"[4]; Dasatinib and Quercetin used in combination, aged, progeroid and irradiation-exposed mice",reduced the number of damaged and/or senescent cells
C=C(C)[C@H]1Cc2c(ccc3c2O[C@@H]2COc4cc(OC)c(OC)cc4[C@@H]2C3=O)O1 [rotenone],PD-L2 induction,[5],prevented PD-L2 induction
"Fc1cc(-c2cccc3ncc(-c4cnn(C5CCNCC5)c4)nc23)cc(F)c1CN1CCOCC1 [JAK inhibitor, NVP-BSK805]",PD-L2 induction,[5],prevented PD-L2 induction
CN(C)CC[C@H](CSc1ccccc1)Nc1ccc(S(=O)(=O)NC(=O)c2ccc(N3CCN(Cc4ccccc4-c4ccc(Cl)cc4)CC3)cc2)cc1[N+](=O)[O-] [ABT-737],elimination of senescent cells,[4],selectively eliminate senescent cells
"COc1cccc2c1C(=O)c1c(O)c3c(c(O)c1C2=O)C[C@@](O)(C(=O)CO)C[C@@H]3O[C@H]1C[C@H](N)[C@H](O)[C@H](C)O1 [doxorubicin, Doxorubicin]",PD-L2 mRNA,[6],dramatic increase in PD-L2 mRNA
CN(C)C(=N)N=C(N)N [metformin],PD-L2 induction,[5],prevented PD-L2 induction
